SMILES strings stand for the structures. Counter-ions that a name gives are not always drawn.

In the experiment the test system is MIAPaCa-2 cells. Nature of the experiment: Combination of NAnO3 and existing anticancer agents, sequential administration (neutral red). The format is cell-based, human. The following applies: exposed only to the anticancer agent (doxorubicin 0.1, gemcitabine 0.04, cisplatin 4 μg/mL); DMEM medium = 100%. Here is the method:
A cell suspension was prepared such that MIAPaCa-2 viable cell count became 5×10^4 cells/mL. The cell suspension (1 mL) was seeded in each of wells of a 12 well plate, allowed to stand in a CO2 incubator set at 37° C. and 5% CO2 and cultured for 18 hours or more to allow the cells to adhere to the bottom of the plate. After the completion of culture, the medium was removed from the plate and the following test-substance solutions were added.
Test-substance solutions 1 to 6 were prepared in the same manner as in Section 2.1 and used. Test-substance solutions 7 to 9 were prepared by adding each anticancer agent/DMEM medium (0.9 mL) and, in several minutes later, adding 0.1 mL of NAnO3. The same operation was also repeated after 48 hours and 72 hours.
After the completion of culture, the medium was removed and washing with PBS (−) was made. To each of the wells of the plate, a 0.005% neutral red (NR) (Kanto Chemical Co., Inc., Lot No. 806W2294) D-MEM solution (1 mL) was added and the plate was allowed to stand in a CO2 incubator for 3 hours. After 3 hours, the NR solution was removed and washing was made with PBS (−). To each plate, 1 mL of a fixation/extraction liquid (ethanol 50% (v/v), glacial acetic acid 1% (v/v) aqueous solution) was added and shaking was made for 10 minutes. Thereafter, the value of the absorbance was measured by using a microplate reader (EL×800, BIO-TEC INSTRUMENTS, INC., wavelength: 540 nm).
Provided that the absorbance of DMEM medium (test-substance solution 1) was regarded as 100%, the cell survival rate (%) of each test group was obtained (FIG. 4).

As to `N.N.[Cl][Pt][Cl]` [cisplatin], the cell survival rate amounted to 47.5%.

Turning to `COc1cccc2c1C(=O)c1c(O)c3c(c(O)c1C2=O)C[C@@](O)(C(=O)CO)C[C@@H]3O[C@H]1C[C@H](N)[C@H](O)[C@H](C)O1` [doxorubicin, doxorubicin hydrochloride], the cell survival rate is reported as 51.1%.

Turning to `Nc1ccn([C@@H]2O[C@H](CO)[C@@H](O)C2(F)F)c(=O)n1` [gemcitabine, gemcitabine hydrochloride], the cell survival rate stood at 44.8%.
